The subject of one data set is iCell Cardiomyocytes2. Put plainly: Ca2+-fluorescence assay in human pluripotent stem cell-derived cardiomyocytes (CTCM human), iCell Cardiomyocytes2. Particulars: 30 min; for Color @ 0.1 μM (hazard score): iCell Cardiomyocytes2, 0.1 μM; for Color @ 0.1 μM (hazard score) / Color @ 1 μM (hazard score): range 0.1-30 μM; for Color @ 0.3 μM (hazard score): iCell Cardiomyocytes2, 0.3 μM; for Color @ 1 μM (hazard score): iCell Cardiomyocytes2, 1 μM; for Color @ 3 μM (hazard score): iCell Cardiomyocytes2, 3 μM; for Color @ 10 μM (hazard score): iCell Cardiomyocytes2, 10 μM; for Color @ 30 μM (hazard score): iCell Cardiomyocytes2, 30 μM. Type of data set: cell-based. On the set-up: key: Green: No concern; Yellow: Low concern; Red: High concern; Black: Very high concern due to arrhythmic events. The procedure:
7) Cardio-Electrophysiological Effects of the Testing Compounds in Synchronously Beating Human Pluripotent Stem Cell-Derived Cardiomyocytes (hSC-CMs) Using a Ca^2+-Fluorescence Assay (CTCM Human)
Compounds were tested in the 96-well plates
Compounds were tested at 0.1 μM, 0.2 μM, 0.5 μM, 1 μM, 2.5 μM and 5 μM (n=4 per dose) on Cor.4U 9-Cardiomyocytes or on iCell® Cardiomyocytes2
Alternatively, compounds were tested at 0.1 μM, 0.3 μM; 1 μM, 3 μM, 10 μM and 30 μM (n=4 per dose) mostly on iCell® Cardiomyocytes2
Dimethylsulfoxide (DMSO). The solutions of the compound in DMSO or its solvent (final concentration of 0.1% DMSO; n=8)
Preparation of Test Article and Controls
Tested compounds were dissolved in DMSO at 1000-fold the intended concentrations. A compound “mother-plate” was made, containing the test compounds and positive and negative controls at 1000-fold the final concentrations. At the experiment day, these stock solutions were diluted with Tyrode (Sigma), supplemented with 10 mM HEPES (Gibco), to 2-fold the intended concentration (in round bottom compound plates). Final DMSO concentration in test solutions and vehicle control was 0.1%.
Second line hSC derived cardiomyocyte called iCell®, Cardiomyocytes2 were purchased from FUJIFILM Cellular Dynamics (USA). The experiments with test drugs are carried out 5 to 7 days after plating the cells onto the plate to have a living, beating monolayer of hiPSC-derived cardiomyocytes. The beating monolayer in 96-well-plates are normally taken from 2 Vials of frozen iCell) Cardiomyocytes2 (≈5 million cells/vial), which will be plated onto […] 96-well plates (≈50K/well).
Before Start of Experiment
At least one hour before the start of the experiments the normal cell medium was replaced with Tyrode solution with Calcium dye (see below).
Cal 520 dye (AAT Bioquest) was dissolved in 11 ml of Tyrode supplemented with 10 mM HEPES and warmed up to 37° C. before adding to the cells.
35 μl cell culture medium was removed from each well and replaced with 35 μl of pre-warmed Cal 520 dye solution and cell plate was incubated for 45 min at 37° C./5% CO2. Cells were incubated for 5 min at 37° C.
Spontaneous electrical activity is recorded, using Cal520™ (AAT Bioquest) calcium fluorescence-dye signaling. This dye integrates the total intracellular calcium activity over the whole well. A bottle of Cal520 dye (50 μg, MW: 1103/mol) is dissolved with 50 μl DMSO as a stock solution of 0.9 mM. 50 μL of the stock solution of the dye was added to 10 ml Tryodes solution to have dye concentration of 4.5 μM. Subsequently, 35 μl of this dye solution was added into each well, to have a final dye concentration of 1.58 μM. The current dye protocol on this CTCM human assay was established recently (Ivan Kopljar et al, Journal of Pharmacological and toxicological methods 2018. 91: 80-86; Lu et al., Tox Sci 2019. 170 (2): 345-356).
Fluorescent signals (Ca^2+ transient morphology) were measured using the Functional Drug Screen System (FDSS/μCell; Hamamatsu, Japan) and the recordings were subsequently analyzed off-line, using appropriate software e.g. Notocord.
The cell plate was loaded into the FDSS/μCell for a test run: Ca^2+ transients were measured for 4 minutes to check for synchronous beating of the cardiomyocytes in each well. All 96 wells were measured simultaneously (sampling interval: 0.06 s, short exposure time: 10 ms; excitation wavelength 480 nm; emission wavelength 540 nm; FDSS/μCell warmed to 37° C.).
During the compound addition step, 100 μl of the respective double-concentrated test solutions was pipetted into each well simultaneously.
Data were analyzed off-line using appropriate software e.g. Notocord-Hem (version 4.3).
The following parameters of the Ca^2′ transient morphology were measured: • beat rate (BR) • amplitude of the Ca^2+ transient (Amp), • CTD90: Ca^2+ transient duration at 90% (time to 90% of the initial base value). […]

In the next data set the test system is MOLM14 cells. The data set can be described thus: Proliferation assay (spheroid growth, 8 days), MOLM14.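 Further: spheroid size read as confluence by live-cell imaging, compounds added at a range of concentrations with 0.3% DMSO, DMSO-treated wells = 0%, highest reference dose = low control.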 Type of data set: cell-based, human. Particulars: MOLM14, 8 days, read-out: spheroid assay_OneTime MOLM14 IC50.
In another data set the test system is OCI-AML3 cells. The data set can be described thus: Proliferation assay (spheroid growth, 8 days), OCI-AML3. The conditions noted are these: OCI-AML3, 8 days. Type of data set: cell-based, human. The essentials: (§1)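 200 MOLM14 (MLL-AF9), 200 OCI-AML3 (NPM1c) or 300 KO-52 (MLL wildtype) cells were grown as spheroids in ultra-low attachment wells with compound, 0.3% DMSO, for 8 days at 37 °C. Confluence was imaged on day 8, normalized to DMSO and top-dose reference compound. IC50 came from a variable-slope fit constrained 0–100%.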

A further data set has as its system KO-52 cells. Put plainly: Proliferation assay (spheroid growth, 8 days), KO-52 control cell line. Format: cell-based, human. Particulars: read-out: spheroid assay_OneTime KO-52 IC50. The essentials: as §1
Data set [1] has as its target menin/MLL (terbium chelate-labeled menin, FITC-MBM1 peptide) (Homo sapiens (Human), UniProt O00255). Put plainly: Menin/MLL homogenous time-resolved fluorescence (HTRF) assay.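 Further: IC50 from percent inhibition of HTRF signal, normalized between wells without competitor and wells with a saturating competitor that displaces FITC-MBM1 from His-tagged menin.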 Type of data set: binding. On the technique in general: In TR-FRET formats the signal depends on donor and acceptor labels being close together.
The next data set relates to MEIS1 mRNA. The data set can be described thus: MEIS1 mRNA expression assay (Quantigene Singleplex) in MOLM14 cells.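 Further: MEIS1 transcript levels read by probe hybridization and normalized to RPL28 mRNA, with IC50 fitted to fold changes across a rising compound concentration series.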 Format: cell-based, human. The conditions noted are these: 48 hours incubation.
Setting [2] is: HTRF-30 min incubation IC50, 30 min incubation.

The text below walks through data of patent US12473295B2, “Substituted straight chain spiro derivatives” (Janssen Pharmaceutica NV, priority 2019, dated 2025).

Counter-ions that a name gives are not always drawn. Like-named read-outs stand apart in the source and are kept apart here.

Usually IC50 stands for the concentration that inhibits the measured activity by half.

menin/MLL (terbium chelate-labeled menin, FITC-MBM1 peptide), sequence (O00255 other isoform, or with tags, fused parts or gaps): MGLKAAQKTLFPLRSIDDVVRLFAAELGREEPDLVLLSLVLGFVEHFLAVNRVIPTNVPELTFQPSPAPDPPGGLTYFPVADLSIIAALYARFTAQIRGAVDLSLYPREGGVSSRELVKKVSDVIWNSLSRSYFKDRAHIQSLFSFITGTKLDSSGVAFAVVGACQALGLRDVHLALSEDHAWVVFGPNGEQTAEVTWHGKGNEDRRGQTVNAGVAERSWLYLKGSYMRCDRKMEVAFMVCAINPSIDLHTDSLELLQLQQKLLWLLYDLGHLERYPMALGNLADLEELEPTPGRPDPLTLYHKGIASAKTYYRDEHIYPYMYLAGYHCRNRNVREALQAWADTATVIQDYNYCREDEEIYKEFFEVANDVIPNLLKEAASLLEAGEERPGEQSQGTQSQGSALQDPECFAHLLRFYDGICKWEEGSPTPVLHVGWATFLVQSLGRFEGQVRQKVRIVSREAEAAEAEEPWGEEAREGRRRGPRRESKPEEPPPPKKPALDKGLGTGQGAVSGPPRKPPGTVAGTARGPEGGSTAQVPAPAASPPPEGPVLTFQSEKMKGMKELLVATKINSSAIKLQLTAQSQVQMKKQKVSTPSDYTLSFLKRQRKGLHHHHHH

For `CCN(C(=O)c1cc(F)ccc1Oc1nncnc1N1CCC2(C1)CN([C@H](CCCN(C)CCOC)C(C)C)C2)C(C)C` [Compound 70a], in the data set on iCell Cardiomyocytes2, the “Color @ 0.1 μM (hazard score)” value is “Green”, the “Color @ 0.3 μM (hazard score)” value is “Green”, the “Color @ 1 μM (hazard score)” value is given as “Green” and the “Color @ 3 μM (hazard score)” value is recorded as “Green”. Besides, in the data set with iCell Cardiomyocytes2, the “Color @ 10 μM (hazard score)” value is given as “Green” and the “Color @ 30 μM (hazard score)” value is listed as “yellow”.

Take `CCN(C(=O)c1cc(F)ccc1Oc1nncnc1N1CCC2(C1)CN([C@H](CCCNC[C@@H](O)COC)C(C)C)C2)C(C)C` [Compound 281, N-ethyl-5-fluoro-2-((5-(2-((R)-6-(((R)-2-hydroxy-3-methoxypropyl)amino)-2-methylhexan-3-yl)-2,6-diazaspiro[3.4]octan-6-yl)-1,2,4-triazin-6-yl)oxy)-N-isopropylbenzamide formate]: the IC50 in the data set with MOLM14 cells (Homo sapiens, MOLM-14, […]) was 48 nM; in the data set with OCI-AML3 cells (Homo sapiens, OCI-AML-3, […]) it was 90 nM; in the data set with KO-52 cells (Homo sapiens, […]), above 15000 nM; in data set [1] (setting [2]) it was 0.24 nM; with MEIS1 mRNA (Homo sapiens, MOLM-14, 48 h), 38 nM.

As for `CCN(C(=O)c1cc(F)ccc1Oc1nncnc1N1CCC2(C1)CN([C@H](CCCN(C)C[C@@H](O)COC)C(C)C)C2)C(C)C` [Compound 283, N-ethyl-5-fluoro-2-((5-(2-((R)-6-(((R)-2-hydroxy-3-methoxypropyl)(methyl)amino)-2-methylhexan-3-yl)-2,6-diazaspiro[3.4]octan-6-yl)-1,2,4-triazin-6-yl)oxy)-N-isopropylbenzamide fumarate], the IC50 in the data set with MOLM14 cells (Homo sapiens, MOLM-14, […]) was 14 nM; in the data set with OCI-AML3 cells (Homo sapiens, OCI-AML-3, […]) it was 46 nM; in the data set on KO-52 cells (Homo sapiens, […]), above 15000 nM; in data set [1] (setting [2]), 0.054 nM; in the data set on MEIS1 mRNA (Homo sapiens, MOLM-14, 48 h) it was 10 nM.

As for `CCN(C(=O)c1cc(F)ccc1Oc1nncnc1N1CCC2(C1)CN([C@H](CCCNC[C@H](O)COC)C(C)C)C2)C(C)C` [Compound 284, N-ethyl-5-fluoro-2-((5-(2-((R)-6-(((S)-2-hydroxy-3-methoxypropyl)amino)-2-methylhexan-3-yl)-2,6-diazaspiro[3.4]octan-6-yl)-1,2,4-triazin-6-yl)oxy)-N-isopropylbenzamide formate], the IC50 in the data set on MOLM14 cells (Homo sapiens, MOLM-14, […]) is 23 nM; in the data set on OCI-AML3 cells (Homo sapiens, OCI-AML-3, […]), 73 nM; with KO-52 cells (Homo sapiens, […]), above 15000 nM; in data set [1] (setting [2]) it was around 0.36 nM; in the data set with MEIS1 mRNA (Homo sapiens, MOLM-14, 48 h), 50 nM.

As to `CCN(C(=O)c1cc(F)ccc1Oc1nncnc1N1CCC2(C1)CN([C@H](CCCN(C)C[C@H](O)COC)C(C)C)C2)C(C)C` [Compound 285, N-ethyl-5-fluoro-2-((5-(2-((R)-6-(((S)-2-hydroxy-3-methoxypropyl)(methyl)amino)-2-methylhexan-3-yl)-2,6-diazaspiro[3.4]octan-6-yl)-1,2,4-triazin-6-yl)oxy)-N-isopropylbenzamide formate], the IC50 in the data set with MOLM14 cells (Homo sapiens, MOLM-14, […]) was 160 nM; in the data set with OCI-AML3 cells (Homo sapiens, OCI-AML-3, […]), 130 nM; with KO-52 cells (Homo sapiens, […]), above 15000 nM; in data set [1] (setting [2]) it was 1.02 nM; with MEIS1 mRNA (Homo sapiens, MOLM-14, 48 h), 270 nM.

For the compound `CCN(C(=O)c1cc(F)ccc1Oc1nncnc1N1CCC2(C1)CN([C@H](CCCN(C)CCO)C(C)C)C2)C(C)C` [Compound 286, (R)-N-ethyl-5-fluoro-2-((5-(2-(6-((2-hydroxyethyl)(methyl)amino)-2-methylhexan-3-yl)-2,6-diazaspiro[3.4]octan-6-yl)-1,2,4-triazin-6-yl)oxy)-N-isopropylbenzamide], the concentration for half-maximal inhibition (IC50) with MOLM14 cells is 76 nM. In the data set with OCI-AML3 cells, this compound displayed an IC50 of 290 nM. In addition, the IC50 in the data set on KO-52 cells came to 22900 nM. Besides, half-maximal inhibition in the data set on MEIS1 mRNA (IC50) required 96 nM. In addition, in the data set on iCell Cardiomyocytes2, the “Color @ 0.1 μM (hazard score)” value is recorded as “Green”, the “Color @ 0.3 μM (hazard score)” value is “Green”, the “Color @ 1 μM (hazard score)” value was “Green” and the “Color @ 3 μM (hazard score)” value was “Green”. Besides, in the data set with iCell Cardiomyocytes2, the “Color @ 10 μM (hazard score)” value is “Green” and the “Color @ 30 μM (hazard score)” value is “Green”.

For `CCN(C(=O)c1cc(F)ccc1Oc1nncnc1N1CCC2(C1)CN([C@H](CCC(C)N(C)CCOC)C(C)C)C2)C(C)C` (stereo partly drawn) [Compound 300, N-ethyl-5-fluoro-N-isopropyl-2-((5-(2-((3R)-6-((2-methoxyethyl)(methyl)amino)-2-methylheptan-3-yl)-2,6-diazaspiro[3.4]octan-6-yl)-1,2,4-triazin-6-yl)oxy)benzamide fumarate], the IC50 was 36 nM with MOLM14 cells (Homo sapiens, MOLM-14, […]); 71 nM with OCI-AML3 cells (Homo sapiens, OCI-AML-3, […]); above 15000 nM in the data set on KO-52 cells (Homo sapiens, […]); 0.066 nM in data set [1] (setting [2]); 29 nM with MEIS1 mRNA (Homo sapiens, MOLM-14, 48 h).

Turning to `CCN(C(=O)c1cc(F)ccc1Oc1nncnc1N1CCC2(C1)CN(C(CC(C)(O)CN(C)CCOC)C(C)C)C2)C(C)C` (stereo not drawn) [Compound 382, N-ethyl-5-fluoro-2-((5-(2-(5-hydroxy-6-((2-methoxyethyl)(methyl)amino)-2,5-dimethylhexan-3-yl)-2,6-diazaspiro[3.4]octan-6-yl)-1,2,4-triazin-6-yl)oxy)-N-isopropylbenzamide fumarate], the IC50 in the data set with MOLM14 cells (Homo sapiens, MOLM-14, […]) stood at 140 nM; in the data set with OCI-AML3 cells (Homo sapiens, OCI-AML-3, […]), 400 nM; with KO-52 cells (Homo sapiens, […]), 11800 nM; in data set [1] (setting [2]), 0.41 nM; in the data set with MEIS1 mRNA (Homo sapiens, MOLM-14, 48 h), 150 nM.

As for `CCN(C(=O)c1cc(F)ccc1Oc1nncnc1N1CCC2(C1)CN([C@H](CCCNC)C(C)C)C2)C(C)C` [Compound 398, (R)-N-ethyl-5-fluoro-N-isopropyl-2-((5-(2-(2-methyl-6-(methylamino)hexan-3-yl)-2,6-diazaspiro[3.4]octan-6-yl)-1,2,4-triazin-6-yl)oxy)benzamide], the IC50 in the data set on MOLM14 cells (Homo sapiens, MOLM-14, […]) came out at 64 nM. In addition, in the data set on OCI-AML3 cells (Homo sapiens, OCI-AML-3, […]), the IC50 stood at 220 nM. Moreover, the IC50 with KO-52 cells (Homo sapiens, […]) was above 15000 nM. Besides, in the data set with iCell Cardiomyocytes2, the “Color @ 0.1 μM (hazard score)” value is “Green”, the “Color @ 0.3 μM (hazard score)” value was “Green”, the “Color @ 1 μM (hazard score)” value is on record as “Green” and the “Color @ 3 μM (hazard score)” value is “Green”. In the data set with iCell Cardiomyocytes2, the “Color @ 10 μM (hazard score)” value is given as “Green” and the “Color @ 30 μM (hazard score)” value is on record as “Green”.

Regarding “N-ethyl-2-((5-(2-((3*R,5*R)-6-(ethyl(methyl)amino)-5-methoxy-2-methylhexan-3-yl)-2, diazaspiro[3.4]octan-6-yl)-1,2,4-triazin-6-yl)oxy)-5-fluoro-N-isopropylbenzamide [Compound 311]”, the half-maximal inhibitory concentration (IC50) with MOLM14 cells is 510 nM; in the data set on OCI-AML3 cells, 2880 nM; in the data set on KO-52 cells it was above 15000 nM; in data set [1] (read-out: HTRF-30 min incubation IC50, 30 min incubation), 1.01 nM; with MEIS1 mRNA it was around 630 nM.
